{"source": "paper PMC7857480", "about": "(The Journal of Biological Chemistry, 2020)", "target": "FigC (Francisella tularensis, UniProt Q15EG8)", "sequence (Q15EG8 1-417)": "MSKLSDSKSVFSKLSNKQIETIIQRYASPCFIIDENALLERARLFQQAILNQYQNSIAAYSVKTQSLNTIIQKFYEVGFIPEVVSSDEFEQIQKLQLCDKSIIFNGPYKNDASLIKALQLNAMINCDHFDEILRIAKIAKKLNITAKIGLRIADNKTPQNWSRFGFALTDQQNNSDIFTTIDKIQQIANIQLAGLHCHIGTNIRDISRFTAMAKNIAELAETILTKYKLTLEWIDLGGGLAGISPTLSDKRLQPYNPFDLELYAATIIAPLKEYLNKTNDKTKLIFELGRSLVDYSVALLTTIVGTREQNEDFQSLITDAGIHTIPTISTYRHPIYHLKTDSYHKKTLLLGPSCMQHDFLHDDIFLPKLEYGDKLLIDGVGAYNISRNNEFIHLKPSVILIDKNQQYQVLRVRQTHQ", "settings": "covalent (Schiff base with K63); active site at dimer interface", "data": [{"smiles": "Cc1ncc(COP(=O)(O)O)c(C=O)c1O", "note": "[PLP]", "values": [{"measurement": "X-ray crystal structure, 2.1 Å, SeMet SAD", "result": "all four active sites showed good density for the cofactor PLP"}]}]}
